Test results from BindingDB's records for PubMed 7965790 (University of Nebraska, 1994).

Columns and labels:
[1] = target: T1, Alpha-2A adrenergic receptor [16-465] (Rattus norvegicus, UniProt P22909)
T1 construct: 16-465
T1 sequence (P22909 whole entry): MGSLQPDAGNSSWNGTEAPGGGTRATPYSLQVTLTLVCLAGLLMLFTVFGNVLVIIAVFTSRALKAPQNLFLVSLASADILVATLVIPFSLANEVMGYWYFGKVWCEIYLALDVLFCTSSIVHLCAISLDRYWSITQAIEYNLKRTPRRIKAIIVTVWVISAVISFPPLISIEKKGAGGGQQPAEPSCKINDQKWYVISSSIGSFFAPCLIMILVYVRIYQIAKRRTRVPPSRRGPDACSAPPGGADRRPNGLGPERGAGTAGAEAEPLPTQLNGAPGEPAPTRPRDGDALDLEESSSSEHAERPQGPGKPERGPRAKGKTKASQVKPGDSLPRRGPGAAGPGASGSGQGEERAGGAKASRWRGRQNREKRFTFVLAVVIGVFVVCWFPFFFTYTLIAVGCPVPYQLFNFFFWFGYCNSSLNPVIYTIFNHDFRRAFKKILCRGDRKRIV

[2] = target: T2, Alpha-2A adrenergic receptor (Bos taurus, UniProt Q28838)
T2 sequence (Q28838 whole entry): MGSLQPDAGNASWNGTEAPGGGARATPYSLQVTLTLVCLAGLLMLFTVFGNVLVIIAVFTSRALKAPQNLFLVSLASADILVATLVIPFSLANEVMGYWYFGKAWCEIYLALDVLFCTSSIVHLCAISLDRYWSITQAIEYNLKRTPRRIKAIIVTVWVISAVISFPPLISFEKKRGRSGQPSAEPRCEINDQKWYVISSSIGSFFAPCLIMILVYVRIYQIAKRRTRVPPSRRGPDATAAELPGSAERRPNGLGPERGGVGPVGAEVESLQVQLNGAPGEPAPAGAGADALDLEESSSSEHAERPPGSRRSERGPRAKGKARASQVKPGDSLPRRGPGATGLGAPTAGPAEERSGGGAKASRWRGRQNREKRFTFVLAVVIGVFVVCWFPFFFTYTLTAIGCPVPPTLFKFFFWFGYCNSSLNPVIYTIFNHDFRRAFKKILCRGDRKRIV

[3] = target: T3, Alpha-2A adrenergic receptor (Sus scrofa, UniProt P18871)
T3 sequence (P18871 whole entry): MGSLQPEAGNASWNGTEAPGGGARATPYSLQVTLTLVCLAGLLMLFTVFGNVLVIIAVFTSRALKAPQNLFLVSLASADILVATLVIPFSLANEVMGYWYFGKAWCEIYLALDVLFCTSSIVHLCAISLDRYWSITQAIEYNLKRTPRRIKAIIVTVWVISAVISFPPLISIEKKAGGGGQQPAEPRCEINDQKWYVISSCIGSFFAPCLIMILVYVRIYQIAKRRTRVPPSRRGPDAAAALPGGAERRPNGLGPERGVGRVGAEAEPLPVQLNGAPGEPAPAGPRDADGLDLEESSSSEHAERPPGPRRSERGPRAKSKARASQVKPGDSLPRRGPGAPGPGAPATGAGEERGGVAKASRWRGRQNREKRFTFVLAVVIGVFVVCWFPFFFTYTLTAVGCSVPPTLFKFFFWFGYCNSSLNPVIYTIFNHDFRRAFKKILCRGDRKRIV

| Compound | Ki [1] | Ki [2] | Ki [3] |
| --- | --- | --- | --- |
| COc1cccc(OC)c1OCCNCC1Oc2ccccc2OC1c1ccccc1 (centres undefined) [NSC_185453] | 46 nM | 13.2 nM | 0.95 nM |
| COc1cc2nc(N3CCN(C(=O)c4ccco4)CC3)nc(N)c2cc1OC [[3H]-Minipress] | – | 1370 nM | 1160 nM |
| COC(=O)C1=COC(C)C2CN3CCc4c([nH]c5ccccc45)C3CC12 (centres undefined) [Ajmalicine] | 289 nM | 653 nM | 10 nM |
| O=C1NCN(c2ccccc2)C12CCN(CC1COc3ccccc3O1)CC2 (centres undefined) [8-(2,3-Dihydro-benzo[1,4]dioxin-2-ylmethyl)-1-phenyl-1,3,8-triaza-spiro[4.5]decan-4-one] | 70 nM | 10.5 nM | 3.36 nM |
| NCC(O)c1ccc(O)c(O)c1 (stereo not drawn) [Noradrenaline,(+)] | – | 1090 nM | 371 nM |
| Cc1cc(C(C)(C)C)c(O)c(C)c1CC1=NCCN1 [SMR000059324] | – | 35 nM | 3.19 nM |
| Cc1ccc(N(CC2=NCCN2)c2cccc(O)c2)cc1 [SMR000059054] | – | – | 2.87 nM |
| CN(C)CCCN1c2ccccc2Sc2ccc(Cl)cc21 [[3-(2-Chloro-phenothiazin-10-yl)-propyl]-dimethyl-amine(Chlorpromazine)] | – | 884 nM | 64 nM |
| CN1C[C@H](Cn2ccnc2-c2ccccc2)C[C@@H]2c3cccc4[nH]c(Br)c(c34)C[C@H]21 [BAM-1303] | 35 nM | 149 nM | 0.52 nM |
| COc1ccccc1N1CCN(CCC2C(=O)c3ccccc3C(C)(C)C2=O)CC1 (centres undefined) [NSC_122211] | 749 nM | 352 nM | 365 nM |
| CC(C)=CCOc1ccc(Cl)c2c1CCN(C)CC2 [SK&F-104078] | 248 nM | 153 nM | 35 nM |
| COC(=O)C1=CO[C@@H](C)[C@@H]2CN3CCc4c([nH]c5ccccc45)[C@H]3C[C@H]12 [AKUAMMIGINE] | 1210 nM | 1830 nM | – |
